Residues, ends and D or L forms follow the SMILES beside them.
What follows are compounds tested on E. coli O157:H7. Conditions: screening-stage peptides tested at 1, 6, 12 and 25 μg/mL.
Format: cell-based, Escherichia coli
Procedure, shortened: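 Tandem-repeat aggregation-prone-region peptides from DMSO stocks were tested for growth inhibition of E. coli O157:H7 at 1, 6, 12 and 25 μg/mL.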
For `CC(C)C[C@H](NC(=O)[C@H](C)NC(=O)[C@H](CCCNC(=N)N)NC(=O)[C@@H]1CCCN1C(=O)[C@H](CCCNC(=N)N)NC(=O)[C@H](CCCNC(=N)N)NC(=O)[C@H](CCCNC(=N)N)NC(=O)[C@@H](NC(=O)[C@H](C)NC(=O)[C@@H](NC(=O)[C@H](CC(C)C)NC(=O)[C@H](CC(C)C)NC(=O)[C@H](C)NC(=O)[C@@H](N)CCCNC(=N)N)[C@@H](C)O)C(C)C)C(=O)N[C@@H](CC(C)C)C(=O)N[C@H](C(=O)N[C@@H](C)C(=O)N[C@H](C(=O)N[C@@H](CC(C)C)C(=O)N[C@@H](CCCNC(=N)N)C(=O)N[C@@H](CCCNC(=N)N)C(=O)O)C(C)C)[C@@H](C)O` [Peptide P116] (H-RALLTAVRRRPRALLTAVLRR-OH; N-terminus and C-terminus assumed), the “E. coli O157 (apparent MIC in screen)” value was 6 µg/mL. In the case of `CC[C@H](C)[C@H](NC(=O)CNC(=O)[C@H](CCCNC(=N)N)NC(=O)[C@H](CC(C)C)NC(=O)[C@@H](N)CCCNC(=N)N)C(=O)N[C@@H](C)C(=O)N[C@@H](CC(C)C)C(=O)NCC(=O)N[C@@H](CCCNC(=N)N)C(=O)N[C@@H](CCCNC(=N)N)C(=O)N1CCC[C@H]1C(=O)N[C@@H](CCCNC(=N)N)C(=O)N[C@@H](CC(C)C)C(=O)N[C@H](C(=O)NCC(=O)N[C@H](C(=O)N[C@@H](C)C(=O)N[C@@H](CC(C)C)C(=O)NCC(=O)N[C@@H](CCCNC(=N)N)C(=O)N[C@@H](CCCNC(=N)N)C(=O)O)[C@@H](C)CC)[C@@H](C)CC` [Peptide P90] (H-RLRGIALGRRPRLIGIALGRR-OH; N-terminus and C-terminus assumed), the “E. coli O157 (apparent MIC in screen)” value is reported as 25 µg/mL. In the case of `CC(C)C[C@H](NC(=O)CNC(=O)[C@H](CCCNC(=N)N)NC(=O)[C@@H]1CCCN1C(=O)[C@H](CCCNC(=N)N)NC(=O)[C@H](CCCNC(=N)N)NC(=O)[C@H](CCC(N)=O)NC(=O)[C@H](CC(C)C)NC(=O)[C@H](C)NC(=O)[C@H](CC(C)C)NC(=O)[C@H](CCCNC(=N)N)NC(=O)[C@H](CC(C)C)NC(=O)CNC(=O)[C@@H](N)CCCNC(=N)N)C(=O)N[C@@H](CC(C)C)C(=O)N[C@@H](CC(C)C)C(=O)N[C@@H](C)C(=O)N[C@@H](CC(C)C)C(=O)N[C@@H](CCC(N)=O)C(=O)N[C@@H](CCCNC(=N)N)C(=O)N[C@@H](CCCNC(=N)N)C(=O)O` [Peptide P99] (H-RGLRLALQRRPRGLLLALQRR-OH; N-terminus and C-terminus assumed), the “E. coli O157 (apparent MIC in screen)” value is reported as 25 µg/mL. `CC(C)C[C@H](NC(=O)CNC(=O)[C@H](CCCNC(=N)N)NC(=O)[C@@H]1CCCN1C(=O)[C@H](CCCNC(=N)N)NC(=O)[C@H](CCCNC(=N)N)NC(=O)[C@H](C)NC(=O)[C@H](CCCNC(=N)N)NC(=O)[C@H](CC(C)C)NC(=O)[C@H](C)NC(=O)[C@H](CC(C)C)NC(=O)[C@H](CC(C)C)NC(=O)CNC(=O)[C@@H](N)CCCNC(=N)N)C(=O)N[C@@H](CC(C)C)C(=O)N[C@@H](C)C(=O)N[C@@H](CC(C)C)C(=O)N[C@@H](CC(C)C)C(=O)N[C@@H](C)C(=O)N[C@@H](CCCNC(=N)N)C(=O)N[C@@H](CCCNC(=N)N)C(=O)O` [Peptide P114] (H-RGLLALRARRPRGLLALLARR-OH; N-terminus and C-terminus assumed) was tested, and the “E. coli O157 (apparent MIC in screen)” value was 25 µg/mL. For `CC(C)C[C@H](NC(=O)CNC(=O)[C@H](CC(C)C)NC(=O)[C@@H](NC(=O)[C@H](C)NC(=O)[C@H](CCCNC(=N)N)NC(=O)[C@@H]1CCCN1C(=O)[C@H](CCCNC(=N)N)NC(=O)[C@H](CCCNC(=N)N)NC(=O)[C@H](C)NC(=O)[C@H](CC(C)C)NC(=O)[C@H](CC(C)C)NC(=O)[C@H](CCCNC(=N)N)NC(=O)[C@H](CC(C)C)NC(=O)[C@@H](NC(=O)[C@H](C)NC(=O)[C@@H](N)CCCNC(=N)N)C(C)C)C(C)C)C(=O)N[C@@H](CC(C)C)C(=O)N[C@@H](C)C(=O)N[C@@H](CCCNC(=N)N)C(=O)N[C@@H](CCCNC(=N)N)C(=O)O` [Peptide P113] (H-RAVLRLLARRPRAVLGLLARR-OH; N-terminus and C-terminus assumed), the “E. coli O157 (apparent MIC in screen)” value was 25 µg/mL.
